Measured values published in US20250243174A1, “ANTITUMORAL COMPOUNDS” (PHARMA MAR, S.A., priority 2021, published 2025).
Read-outs that look alike come from different tables or passages of the source.

What was measured:
[1] = system: A549; assay: SRB colorimetric cytotoxicity assay, A549; type: cell-based; conditions: Homo sapiens, read-out: GI50 (M) A549
Description: The aim of this assay is to evaluate the in vitro cytostatic (ability to delay or arrest tumor cell growth) or cytotoxic (ability to kill tumor cells) activity of the samples being tested.
A colorimetric assay, using sulforhodamine B (SRB) reaction has been adapted to provide a quantitative measurement of cell growth and viability (using the technique developed by Skehan et al., J. Natl. Cancer Inst. 1990 and following the protocol detailed in V. Vichai and K. Kirtikara (2006) Nature Protoc. 1, 1112-1116.)
This form of assay employs 96-well cell culture microplates. All the cell lines used in this study were obtained from the American Type Culture Collection (ATCC), unless otherwise indicated, and derive from different types of human cancer.
Cells were maintained in Dulbecco's Modified Eagle Medium (DMEM) (for A549, HT-29 and MDA-MB-231) or RPMI (for PSN-1) supplemented with 10% Fetal Bovine Serum (FBS), 2 mM L-glutamine, 100 U/mL penicillin and 100 U/mL streptomycin at 37° C., 5% CO2 and 98% humidity. For the experiments, cells were harvested from subconfluent cultures using trypsinization and resuspended in fresh medium before counting and plating.
Cells were seeded in 96 well microtiter plates, at 5×10^3 cells per well in aliquots of 150 μL, and allowed to attach to the plate surface for 18 hours (overnight) in drug free medium. After that, one control (untreated) plate of each cell line was fixed (as described below) and used for time zero reference value. Culture plates were then treated with test compounds (50 μL aliquots of 4× concentrated compound stock solutions made in complete culture medium) using ten serial dilutions (concentrations ranging from […]) and triplicate cultures (final concentration of DMSO being 1%). After 72 hours treatment, the antitumor effect was measured by using the SRB methodology: Briefly, cells were washed twice with PBS, fixed for 15 min in 1% glutaraldehyde solution at room temperature, rinsed twice in PBS, and stained in 0.4% SRB solution for 30 min at room temperature. Cells were then rinsed several times with 1% acetic acid solution and air-dried at room temperature. SRB was then extracted in 10 mM trizma base solution and the absorbance measured in an automated spectrophotometric plate reader at 490 nm. Effects on cell growth and survival were estimated by applying the NCI algorithm (Boyd M R and Paull K D. Drug Dev. Res. 1995, 34, 91-104).
Using the mean±SD of triplicates, a dose-response curve was automatically generated using nonlinear regression analysis to a 4-parameter logistic curve. Three reference parameters were calculated (NCI algorithm) by automatic interpolation: GI50=compound concentration that produces […] cell growth inhibition, as compared to control cultures.

[2] = system: H460 xenografts; assay: Example 5, NSCLC xenograft model H460; type: in vivo; conditions: for tumor reduction compared to placebo: higher doses 16, 2 or 1 mg/kg; for TV, median (IQR) / Median survival time: iv Q7dx3; for TV, median (IQR): high dose: PM060184 16, Comp. 2 2, Comp. 3 1 mg/kg; for antitumor activity compared to PM060184 (16 mg/kg) / mean time frame during which the animals had tumor remission / mean body weight reduction: compound 2 2.0 mg/kg, compound 3 1.0 mg/kg; for animals with complete tumor remission: highest dose: compound 2 2.0, compound 3 1.0 mg/kg; for mean body weight reduction: recorded on Day 9
Method: Female athymic nu/nu mice (Harlan Laboratories Models, S.L. Barcelona, Spain or Envigo, Spain) were utilized for all experiments. Animal were housed in individually ventilated cages Sealsafe® Plus, Techniplast S.P.A.), up to ten per cage on a 12-hour light-dark cycle at 21-23° C. and 40-60% humidity. Mice were allowed free access to irradiated standard rodent diet (Tecklad 2914C) and sterilized water. Animals were acclimated for at least 5 days prior to tumor implantation with a tumor cell suspension.
H460 cells were maintained in vitro at 37° C. with 5% CO2 in Dulbecco's Modified Eagle's Medium (Sigma-Aldrich, Co). Culture cells were passaged every 3 to 5 days upon reaching confluence. Each animal was subcutaneously implanted (on the right flank using 26G needle and a 1 cc syringe) at 4-6 weeks of age with 5×10^6 H460 cells suspended in 0.05 mL of a solution consisting of 50% Matrigel® (Corning Incorporated Life Sciences) and 50% medium without serum or antibiotics.
All treatments were intravenously administered on a weekly basis at their MTD, ¼ MTD and 1/16 MTD (high, medium and low dose).
Briefly: • 4 to 6 week-old athymic nu/nu female mice were subcutaneously implanted with tumor cells growing in culture. • When tumors reached a certain volume, tumor bearing animals (N=8-10/group) were randomly allocated into treatment groups. • Tumor dimensions and body weights were recorded 2-3 times per week starting from the first day of treatment (Day 0). Treatments producing >20% lethality and/or 20% net body weight loss were considered toxic. Tumor volume was calculated using the equation (a·b^2)/2, where a and b were the longest and shortest diameters, respectively. Animals were euthanized when their tumors reached ca. 2,000 mm^3 and/or severe necrosis was seen. • Median was calculated for tumor volume on each measurement day. • Antitumor effect was assessed comparing tumor volume data from groups following the 1st, 2nd, 3rd study weeks, or more depending on the case, using a two-tailed Mann-Whitney U test. The data are presented as medians and interquartile range (IQR). • Complete tumor regression (CR) was defined when tumor volume<63 mm^3 for 2 or more consecutive measurements. • Treatment tolerability was assessed by monitoring body weight evolution, clinical signs of systemic toxicity as well as evidences of local damage at the injection site.
PM060184 was provided in the form of freeze-dried vials of lyophilized product. Each vial was reconstituted with water for infusion to a concentration of 2.5 mg/mL.
Compounds 2 and 3 were provided in the powder form and were solubilized with hydroxy-propyl-β-cyclodextrin (HPβCD), reaching a concentration of 1 mg/ml or 0.2 mg/ml, respectively. Placebo was provided in the form of lyophilised cake containing 1.2 g of hydroxy-propyl-β-cyclodextrin (HPβCD) which was reconstituted with water for infusion.
In these experiments, compounds 2, 3 and PM060184, as well as placebo, were intravenously administered once per week for 3 consecutive weeks, on Days 0, 7 and 14, whenever it was possible.
The experiment was carried out as previously explained. When tumors reached ca. 160-170 mm^3, tumor bearing animals (N=10/group) were randomly allocated into the following treatment groups:
Treatments were initiated on Day 0.

[3] = high dose: PM060184 16.0, Comp. 2 2.0, Comp. 3 1.0 mg/kg
[4] = high dose: compound 2 2.0, compound 3 1.0, PM060184 16 mg/kg
[5] = low dose: PM060184 1.0, Comp. 2 0.125, Comp. 3 0.0625 mg/kg
[6] = medium dose: PM060184 4.0, Comp. 2 0.5, Comp. 3 0.25 mg/kg

Structure (SMILES)	GI50 ([1]; A549, 72 h) [M]	tumor reduction compared to placebo ([2]; Day 7)	TV, median (IQR) ([2]; Day 7)	TV, median (IQR) ([2]; Day 14)	TV, median (IQR) ([2]; Day 21)	TV, median (IQR) ([2]; Day 28)	TV, median (IQR) ([2]; Day 35)	antitumor activity compared to PM060184 (16 mg/kg) [2]	mean time frame during which the animals had tumor remission [2] [days]	Median survival time [2, 3] [days]	tumor remissions lasted [2, 4]	animals with complete tumor remission [2] [%]	Median survival time [2, 5] [days]	Median survival time [2, 6] [days]	mean body weight reduction [2]	other results
COC1=CC[C@@H]([C@@H](C)/C=C(C)/C=C\C=C/C(=O)N[C@H](C(=O)N/C=C\C[C@H](C/C=C(\C)F)OC(N)=O)C(C)(C)C)OC1=O [Compound 2]	4.55e-11	very strong, statistically significant tumor reduction	114.7 (97.2-131.6) mm3	80.9 (61.1-109.3) mm3	53.5 (33.4-59.7) mm3	95.0 (73.2-119.1) mm3	505.4 (428.9-583.7) mm3	stronger, statistically significant, antitumor activity	8.8	45.5	more than 48 days	100	14	40	ca. −13.4%	tumor remissions lasted ([2]; medium dose: compound 2 0.5 mg/kg): 30.9 days
COC1=CC[C@@H]([C@@H](C)/C=C(C)/C=C\C=C/C(=O)N[C@H](C(=O)N/C=C\C[C@H](CC=C(C)C)OC(N)=O)C(C)(C)C)OC1=O [Compound 3]	5.98e-11	very strong, statistically significant tumor reduction	123.9 (93.4-157.6) mm3	80.3 (71.0-83.5) mm3	59.3 (38.7-62.5) mm3	77.6 (55.3-85.1) mm3	374.8 (257.4-438.2) mm3	stronger, statistically significant, antitumor activity	7.8	–	more than 45.1 days	100	14	–	ca. −18.5%	antitumor activity of compound 3 compared to compound 2 ([2]; at the MTD's, 1.0 mg/kg or 2.0 mg/kg): statistically significant higher antitumor activity than compound 2; Median survival time ([2]; high dose: PM060184 16.0, Comp. 2 2.0, Comp. 3 1.0 mg/kg, 1 mg/kg): 45.5 days; Median survival time ([2]; high dose: PM060184 16.0, Comp. 2 2.0, Comp. 3 1.0 mg/kg, listed as Comp. 3, 1 mg/kg): 48 days; Median survival time ([2]; medium dose: PM060184 4.0, Comp. 2 0.5, Comp. 3 0.25 mg/kg, 0.25 mg/kg): 40 days; Median survival time ([2]; medium dose: PM060184 4.0, Comp. 2 0.5, Comp. 3 0.25 mg/kg, listed as Comp. 3, 0.25 mg/kg): 38.5 days
C/C=C\C[C@@H](C/C=C\NC(=O)[C@@H](NC(=O)\C=C/C=C\C(C)=C\[C@H](C)[C@@H]1CC=C(OC)C(=O)O1)C(C)(C)C)OC(N)=O [PM060184, reference compound]	–	very strong, statistically significant tumor reduction	100.1 (80.6-119.0) mm3	97.8 (74.5-149.3) mm3	129.4 (83.5-172.3) mm3	631.0 (454.0-873.9) mm3	1470 (1470-1666) mm3	–	–	37	two	–	16	30	–	GI50 ([1]; A549, 72 hours treatment, SRB): 1.71e-10 M; animals with complete tumor remission (number out of 10) ([2]; PM060184 16 mg/kg): Four out of 10; body weight decrease ([2]; recorded on Day 12, PM060184 16 mg/kg): ca. −6.8%
